Some results are limits rather than exact numbers.

The target of one data set is Histamine H3 receptor (Homo sapiens, UniProt Q9Y5N1). Put plainly: Binding affinity at histamine H3 receptor by hH3-[35S]GTPgamma[S] binding assay. Type of data set: functional. A general note: GTPγS is a poorly hydrolysed GTP analogue; its binding reports G protein activation.
For a further data set, the target named is hERG (KCNH2) (Homo sapiens, UniProt Q12809). Nature of the data set: in vitro.
The target of another data set is T1, Cytochrome P450 1A2 (Homo sapiens, UniProt P05177).
T1 sequence (P05177 whole entry): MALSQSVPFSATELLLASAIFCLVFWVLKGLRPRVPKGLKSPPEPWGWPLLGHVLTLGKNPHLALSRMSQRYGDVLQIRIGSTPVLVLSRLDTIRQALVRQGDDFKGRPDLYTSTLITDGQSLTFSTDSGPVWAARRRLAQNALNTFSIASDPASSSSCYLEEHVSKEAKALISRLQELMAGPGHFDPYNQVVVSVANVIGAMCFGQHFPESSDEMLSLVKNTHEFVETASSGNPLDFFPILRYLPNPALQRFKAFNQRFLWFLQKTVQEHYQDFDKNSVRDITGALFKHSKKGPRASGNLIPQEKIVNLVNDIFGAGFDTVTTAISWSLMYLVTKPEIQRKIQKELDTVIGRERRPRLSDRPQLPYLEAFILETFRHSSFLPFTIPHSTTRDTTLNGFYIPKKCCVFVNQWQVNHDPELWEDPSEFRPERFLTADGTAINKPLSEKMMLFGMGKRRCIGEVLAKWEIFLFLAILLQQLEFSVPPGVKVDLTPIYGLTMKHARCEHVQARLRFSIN

The next data set concerns the target Cytochrome P450 3A4 (Homo sapiens, UniProt P08684).
A further data set concerns the target Cytochrome P450 2D6 (Homo sapiens, UniProt P10635).
[1] abbreviates: HEK293 cells that express hERG, probe [3H]astemizole.

Chain of Cytochrome P450 3A4 (P08684 whole entry): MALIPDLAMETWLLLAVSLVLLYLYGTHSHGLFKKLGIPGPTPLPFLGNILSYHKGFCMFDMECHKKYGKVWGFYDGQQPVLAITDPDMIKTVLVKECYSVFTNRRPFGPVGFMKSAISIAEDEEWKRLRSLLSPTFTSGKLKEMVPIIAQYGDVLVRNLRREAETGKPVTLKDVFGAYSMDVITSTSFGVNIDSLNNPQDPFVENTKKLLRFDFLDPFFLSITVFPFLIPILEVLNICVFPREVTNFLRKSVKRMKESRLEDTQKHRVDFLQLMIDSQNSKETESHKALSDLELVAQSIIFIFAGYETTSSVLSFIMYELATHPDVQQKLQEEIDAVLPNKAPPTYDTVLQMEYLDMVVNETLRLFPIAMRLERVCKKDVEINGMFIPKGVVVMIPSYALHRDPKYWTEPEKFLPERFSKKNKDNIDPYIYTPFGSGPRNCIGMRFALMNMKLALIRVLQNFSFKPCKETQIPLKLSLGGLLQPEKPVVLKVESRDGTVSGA
Chain of Histamine H3 receptor (Q9Y5N1 whole entry): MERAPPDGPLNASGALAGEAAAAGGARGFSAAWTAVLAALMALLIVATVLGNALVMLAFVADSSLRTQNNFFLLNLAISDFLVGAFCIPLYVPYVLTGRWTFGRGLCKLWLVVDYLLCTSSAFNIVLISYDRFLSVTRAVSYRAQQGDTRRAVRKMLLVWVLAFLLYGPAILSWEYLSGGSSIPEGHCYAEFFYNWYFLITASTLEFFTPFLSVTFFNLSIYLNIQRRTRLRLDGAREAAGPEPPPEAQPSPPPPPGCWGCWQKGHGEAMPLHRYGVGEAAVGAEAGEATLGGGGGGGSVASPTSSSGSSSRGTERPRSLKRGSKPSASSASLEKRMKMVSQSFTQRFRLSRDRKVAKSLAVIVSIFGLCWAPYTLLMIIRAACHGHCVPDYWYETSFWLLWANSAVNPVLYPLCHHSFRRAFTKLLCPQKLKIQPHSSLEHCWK
Chain of hERG (KCNH2) (Q12809 whole entry): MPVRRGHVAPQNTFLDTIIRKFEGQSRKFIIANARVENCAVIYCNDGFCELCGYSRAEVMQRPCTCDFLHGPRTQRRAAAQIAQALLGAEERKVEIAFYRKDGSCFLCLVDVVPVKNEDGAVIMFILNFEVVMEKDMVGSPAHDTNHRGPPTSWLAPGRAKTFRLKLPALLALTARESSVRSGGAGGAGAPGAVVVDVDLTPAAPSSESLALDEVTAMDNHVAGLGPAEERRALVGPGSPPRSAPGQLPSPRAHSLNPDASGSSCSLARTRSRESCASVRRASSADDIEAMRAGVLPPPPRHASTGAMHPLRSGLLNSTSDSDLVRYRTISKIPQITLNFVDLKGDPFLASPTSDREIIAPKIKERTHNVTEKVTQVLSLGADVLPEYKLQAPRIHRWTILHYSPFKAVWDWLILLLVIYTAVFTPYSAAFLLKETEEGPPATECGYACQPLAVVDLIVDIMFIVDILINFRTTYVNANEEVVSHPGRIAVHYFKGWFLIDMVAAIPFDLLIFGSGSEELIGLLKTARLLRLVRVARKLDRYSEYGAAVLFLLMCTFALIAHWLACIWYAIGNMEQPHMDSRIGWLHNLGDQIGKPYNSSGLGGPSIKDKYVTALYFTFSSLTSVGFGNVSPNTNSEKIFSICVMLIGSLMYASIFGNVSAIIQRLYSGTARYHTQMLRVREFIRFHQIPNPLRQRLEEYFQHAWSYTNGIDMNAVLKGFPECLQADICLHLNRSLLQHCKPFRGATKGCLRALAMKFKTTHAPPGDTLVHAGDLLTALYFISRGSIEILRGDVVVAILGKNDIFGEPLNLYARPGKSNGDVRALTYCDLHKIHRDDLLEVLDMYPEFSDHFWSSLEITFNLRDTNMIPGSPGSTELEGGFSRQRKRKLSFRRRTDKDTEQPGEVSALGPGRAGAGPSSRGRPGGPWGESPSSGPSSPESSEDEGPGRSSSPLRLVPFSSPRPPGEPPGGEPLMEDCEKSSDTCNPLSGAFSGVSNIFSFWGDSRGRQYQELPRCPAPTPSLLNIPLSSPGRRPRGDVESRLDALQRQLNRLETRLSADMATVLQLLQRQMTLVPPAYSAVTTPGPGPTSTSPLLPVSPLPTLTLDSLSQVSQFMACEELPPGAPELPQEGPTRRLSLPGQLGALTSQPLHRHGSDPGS
Chain of Cytochrome P450 2D6 (P10635 whole entry): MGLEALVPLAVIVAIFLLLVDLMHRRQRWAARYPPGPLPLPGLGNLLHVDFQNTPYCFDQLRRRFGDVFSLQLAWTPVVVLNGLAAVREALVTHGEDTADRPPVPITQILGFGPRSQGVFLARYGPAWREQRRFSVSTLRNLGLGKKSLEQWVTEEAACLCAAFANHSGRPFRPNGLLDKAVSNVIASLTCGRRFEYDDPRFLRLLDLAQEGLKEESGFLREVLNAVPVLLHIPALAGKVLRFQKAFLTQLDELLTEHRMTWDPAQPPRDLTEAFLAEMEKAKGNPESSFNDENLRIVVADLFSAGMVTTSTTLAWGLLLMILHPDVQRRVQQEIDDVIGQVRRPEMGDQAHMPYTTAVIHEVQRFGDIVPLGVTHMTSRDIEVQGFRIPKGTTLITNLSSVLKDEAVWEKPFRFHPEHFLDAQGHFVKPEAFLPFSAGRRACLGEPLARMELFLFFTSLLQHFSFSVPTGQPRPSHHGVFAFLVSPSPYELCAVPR

One may read the Ki as a dissociation constant, usually derived from enzyme kinetics or from competition with a known ligand. A low value points to a stronger hold on the target. With `O=C(NC1Cc2ccccc2C1)N1CCC[C@H]1CN1CCCC1`, the inhibition constant (Ki) at Histamine H3 receptor was 52 nM (antagonist).

What is called inhibition is the share of the control response that was lost under treatment. Low readings indicate a weak effect, high ones a strong effect. `CN(Cc1ccc(-c2ccccc2)cc1)C(=O)N1CCC[C@H]1CN1CCCC1` came in with an inhibition at 10 µM on hERG (KCNH2) (setting [1]) of 66%.

As for `O=C(NCc1ccc(OC(F)(F)F)cc1)N1CCC[C@H]1CN1CCCC1`, the Ki at Histamine H3 receptor is recorded as 121 nM (antagonist).

Take `O=C(NCC1CCCCC1)N1CCC[C@H]1CN1CCCC1`: on Histamine H3 receptor, the inhibition constant (Ki) is listed as 458 nM (antagonist).

On to `O=C(NCc1ccc(Cl)c(Cl)c1)N1CCC[C@H]1CN1CCCC1`, for which, at Histamine H3 receptor, the Ki is 47 nM (antagonist).

The term IC50 denotes the midpoint of a concentration-inhibition curve. Higher therefore signals lower potency. Turning to `CC(C)N1CCN(C(=O)N2CCC(C(=O)OC(C)(C)C)CC2)CC1`, the IC50 against Cytochrome P450 1A2, against Cytochrome P450 3A4 and against Cytochrome P450 2D6 was greater than 25000 nM each time. On hERG (KCNH2) (setting [1]), this molecule yielded an inhibition at 10 µM of 9%.

On to `COc1ccc(CNC(=O)N2CCC[C@H]2CN2CCCC2)cc1`, for which, on Histamine H3 receptor, the Ki is recorded as 295 nM (antagonist).

As to `CCN1CCN(C(=O)N[C@@H]2C[C@H]2c2ccccc2)CC1`, on Histamine H3 receptor, the Ki is recorded as 40 nM (antagonist).

`CC(C)N1CCN(C(=O)N2CCC(C(=O)N3CC4CCC(CC4)C3)CC2)CC1`: the 50% inhibitory concentration (IC50) on Cytochrome P450 1A2, against Cytochrome P450 3A4 and on Cytochrome P450 2D6 was greater than 25000 nM each time. Besides, the inhibition at 10 µM against hERG (KCNH2) (hek293) amounted to 8%.

For `O=C(NCc1ccc(Oc2ccccc2)cc1)N1CCN(C2CCCC2)CC1`, the Ki at Histamine H3 receptor is given as 38 nM (antagonist).

As to `O=C(NCc1ccc(-c2ccccc2)cc1)N1CCC[C@H]1CN1CCCC1`, the Ki on Histamine H3 receptor is 87 nM (antagonist).

Take `O=C(/C=C/c1ccc(OC(F)(F)F)cc1)N1CCC[C@H]1CN1CCCC1`: the Ki on Histamine H3 receptor is given as 13.4 nM (antagonist).

Regarding `O=C(NCc1cccc(C(F)(F)F)c1)N1CCC[C@H]1CN1CCCC1`, the inhibition constant (Ki) on Histamine H3 receptor was 117 nM (antagonist).

Consider `O=C(NCc1ccc(Cl)c(Cl)c1)N1CCN(C2CCCC2)CC1`, for which the inhibition constant Ki on Histamine H3 receptor is reported as 15 nM (antagonist).

Regarding `O=C(/C=C/c1ccc(Cl)cc1)N1CCC[C@H]1CN1CCCC1`, the inhibition constant (Ki) at Histamine H3 receptor is listed as 11.2 nM (antagonist).

At hERG (KCNH2) (setting [1]), `COc1cc2c(cc1OC)CN(C(=O)N1CCN(C(C)C)CC1)CC2` gave an inhibition at 10 µM of 8%.

`COc1cccc(CNC(=O)N2CCC[C@H]2CN2CCCC2)c1`: the Ki at Histamine H3 receptor is listed as 188 nM (antagonist).

For the molecule `CC(C)N1CCN(C(=O)N(C)Cc2ccc(-c3ccccc3)cc2)CC1`, the inhibition constant Ki at Histamine H3 receptor is 37 nM (antagonist). For the same molecule, the inhibition at 10 µM against hERG (KCNH2) (setting [1]) amounted to 55%.

Consider `CC(C)N1CCN(C(=O)N2CCC(Cc3ccccc3)CC2)CC1`, for which, at hERG (KCNH2) (hek293), the inhibition at 10 µM turned out to be 21%.

For `CC(C)N1CCN(C(=O)NC2Cc3ccccc3C2)CC1`, the Ki on Histamine H3 receptor is recorded as 30 nM (antagonist).

Consider `O=C(/C=C/c1ccc(-c2ccccc2)cc1)N1CCC[C@H]1CN1CCCC1`, for which the Ki on Histamine H3 receptor is given as 3.7 nM (antagonist).

`O=C(NCc1ccccc1)N1CCN(C2CCCC2)CC1`: the inhibition constant Ki on Histamine H3 receptor was 94 nM (antagonist).

Consider `CC(C)N1CCN(C(=O)N2CCC(NC(=O)C3CCCC3)CC2)CC1`, for which the results for the half-inhibitory concentration (IC50) against Cytochrome P450 1A2, against Cytochrome P450 3A4 and on Cytochrome P450 2D6 were greater than 25000 nM, greater than 25000 nM and 17000 nM, respectively. This molecule registered an inhibition at 10 µM on hERG (KCNH2) (hek293) of 6%.

For the molecule `CCN1CCN(C(=O)NC2Cc3ccccc3C2)CC1`, the inhibitory constant (Ki) at Histamine H3 receptor is given as 44 nM (antagonist).

`O=C(N1CCN(C2CC2)CC1)N1Cc2ccccc2C1` displayed an inhibition at 10 µM against hERG (KCNH2) (setting [1]) of 16%.

In the case of `CC(C)N1CCN(C(=O)NCc2ccc(Cl)c(Cl)c2)CC1`, at Histamine H3 receptor, the inhibitory constant (Ki) was 20 nM (antagonist).

`CC(C)N1CCN(C(=O)N2CC=C(c3ccccc3)CC2)CC1` had an inhibition at 10 µM at hERG (KCNH2) (hek293) of 31%.

`NCc1cccc(CNC(=O)N2CCC[C@H]2CN2CCCC2)c1`: at Histamine H3 receptor, the Ki is reported as 78 nM (antagonist).

For `NCc1ccc(CNC(=O)N2CCC[C@H]2CN2CCCC2)cc1`, the inhibition constant (Ki) on Histamine H3 receptor is 109 nM (antagonist).

`O=C(NC1Cc2ccccc2C1)N1CCN(C2CCCC2)CC1`: the Ki at Histamine H3 receptor is given as 29 nM (antagonist).

On hERG (KCNH2) (setting [1]), `O=C(N1Cc2ccccc2C1)N1CCC[C@H]1CN1CCCC1` had an inhibition at 10 µM of 26%.

Take `O=C(NCc1ccccc1)N1CCC[C@H]1CN1CCCC1`: the inhibition constant (Ki) at Histamine H3 receptor was 196 nM (antagonist).

Take `O=C(NCc1ccc(Oc2ccccc2)cc1)N1CCC[C@H]1CN1CCCC1`: the Ki at Histamine H3 receptor is listed as 34 nM (antagonist).

`O=C(NCCc1ccccc1)N1CCC[C@H]1CN1CCCC1`: on Histamine H3 receptor, the Ki is given as 226 nM (antagonist).

For the molecule `O=C(NCc1ccc(Cl)cc1)N1CCC[C@H]1CN1CCCC1`, on Histamine H3 receptor, the inhibition constant Ki is on record as 165 nM (antagonist).

As for `O=C(N1CCN(C2CCCC2)CC1)N1Cc2ccccc2C1`, testing at 10 µM at hERG (KCNH2) (setting [1]) gave an inhibition of 45%.

On to `CC(C)N1CCN(C(=O)NCc2ccc(Oc3ccccc3)cc2)CC1`, for which the Ki on Histamine H3 receptor is 34 nM (antagonist).

(Values after ChEMBL document CHEMBL1137244, “Ureas with histamine H3-antagonist receptor activity--a new scaffold discovered by lead-hopping from cinnamic acid amides” (Bioorg Med Chem Lett, 2006).)
